Structures can show the parent of a compound that is named as a salt.

In series [1] the target is c-Cbl (Homo sapiens (Human), UniProt P22681). Nature of the series: C-Cbl LCK Ub TR-FRET assay (c-cbl Lck HTRF). Type of series: biochemical. The note with it: for (fold-selectivity): C-cbl Lck HTRF IC50 relative to Cbl-b Lck HTRF IC50. Put shortly:
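Detection reagents added, brief spin, 20 min RT. IC50 fit normalized to no-LCK (low) and DMSO (high) controls.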
For orientation: Time-resolved FRET reads energy transfer from a long-lived donor to a nearby acceptor.

The target of series [2] is Cbl-b (Homo sapiens (Human), UniProt Q13191). Nature of the series: Cbl-b LCK Ub TR-FRET assay (Cbl-b Lck HTRF). Type of series: biochemical. Put shortly: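 TR-FRET (340 nm excitation, 615/665 nm emission) read after adding HA-ubiquitin–UBE2D2 thioester, anti-HA-D2 and streptavidin-Eu. Beforehand, compounds incubated 60 min with biotinylated Cbl-b, then 90 min with His-LCK and ATP (1 mM in 2× mix); IC50 from 10 concentrations, DMSO high and no-LCK low controls.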
Chain of Cbl-b (Q13191 40-426): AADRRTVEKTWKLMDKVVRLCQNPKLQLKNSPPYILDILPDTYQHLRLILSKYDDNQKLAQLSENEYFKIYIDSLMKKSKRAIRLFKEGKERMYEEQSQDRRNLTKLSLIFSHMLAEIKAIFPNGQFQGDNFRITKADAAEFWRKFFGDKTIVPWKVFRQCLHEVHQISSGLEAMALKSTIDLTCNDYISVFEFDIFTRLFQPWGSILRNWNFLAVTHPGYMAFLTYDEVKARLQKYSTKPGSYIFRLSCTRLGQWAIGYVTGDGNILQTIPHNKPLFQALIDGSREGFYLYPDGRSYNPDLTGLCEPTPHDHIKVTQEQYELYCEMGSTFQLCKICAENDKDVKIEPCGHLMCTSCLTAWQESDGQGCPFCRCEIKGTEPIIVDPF

Series [3] in a line: In vivo pharmacokinetics, mouse. Also noted: species or system CD-1 mice. The note with it: male, CD-1, plasma. The procedure: The pharmacokinetics of test compounds were evaluated following a single intravenous bolus (IV) of solution at a dose of 0.2-1 mg/kg and oral administration (PO) of solution/suspension at doses of 1-5 mg/kg in male cynomolgus monkey, beagle dogs, Sprague Dawley rats, or CD-1 mice using a parallel study design. Blood samples for the IV dose group were collected prior to administration (predose) and at 0.033, 0.083, 0.25, 0.5, 1, 3, 6, 9 and 24 hours post dose. Blood samples for PO dose groups were collected prior to administration (predose) and at 0.083, 0.25, 0.5, 1, 3, 6, 9 and 24 hours post dose. For the IV group, urine was collected from each animal at predose and from 0-6 and 6-24 hours post dose. The vehicle used for IV dose groups was a combination of PEG400 with citrate buffer (pH 5.0) or PEG400/Cremphor with DMSO/H2O, and for PO groups was MCT.
Plasma and urine concentrations were quantitated at Genentech Inc. using a non-validated LC/MS/MS method. The lower limit of quantitation (LLOQ) of the plasma and urine assays was 0.005 μM. PK parameters were determined by non-compartmental methods using WinNonlin (version 5.2, Pharsight Corporation, Mountain View, CA).

Chain of c-Cbl (P22681 47-435): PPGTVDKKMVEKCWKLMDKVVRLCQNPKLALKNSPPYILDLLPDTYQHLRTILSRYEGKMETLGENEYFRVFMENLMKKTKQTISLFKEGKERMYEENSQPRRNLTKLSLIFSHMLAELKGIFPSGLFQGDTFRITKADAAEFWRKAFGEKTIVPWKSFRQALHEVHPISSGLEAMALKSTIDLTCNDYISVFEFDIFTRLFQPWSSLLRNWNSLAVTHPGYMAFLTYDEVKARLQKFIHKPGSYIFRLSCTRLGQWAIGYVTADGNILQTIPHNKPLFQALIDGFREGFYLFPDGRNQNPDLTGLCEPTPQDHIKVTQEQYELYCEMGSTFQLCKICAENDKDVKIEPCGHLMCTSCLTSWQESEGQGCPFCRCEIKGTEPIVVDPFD

For the compound `CC(C)[C@H]1CN(C)CCN1Cc1cc2c(c(C(F)(F)F)c1)CN(c1cccc(C3([C@@H](F)c4nncn4C)COC3)c1)C2=O` [Compound 187, 2-(3-(3-((R)-fluoro(4-methyl-4H-1,2,4-triazol-3-yl)methyl)oxetan-3-yl)phenyl)-6-(((S)-2-isopropyl-4-methylpiperazin-1-yl)methyl)-4-(trifluoromethyl)isoindolin-1-one], the half-maximal inhibitory concentration (IC50) (in general, the concentration that inhibits the measured activity by half) in series [1] was 0.013 µM; in series [2], 0.011 µM. Further, the “(fold-selectivity)” value in series [1] is given as 1.1x. In addition, in series [3] (PO 1-5 mg/kg, read-out: Oral Bioavailability (F %)), the bioavailability (usually dose-corrected exposure relative to a reference, in per cent) was 13%. Moreover, the clearance in series [3] (single intravenous bolus 0.2-1 mg/kg, read-out: Mouse CL) worked out at 2.52 L/h/kg.
Consider `Cn1cnnc1[C@H](F)[C@](C)(F)c1cccc(N2Cc3c(cc(CN4CC(C)(F)C4)cc3C(F)(F)F)C2=O)c1` [Compound 31, 2-(3-((1 S,2R)-1,2-difluoro-1-(4-methyl-4H-1,2,4-triazol-3-yl)propan-2-yl)phenyl)-6-((3-fluoro-3-methylazetidin-1-yl)methyl)-4-(trifluoromethyl)isoindolin-1-one], for which, in series [1], half-maximal inhibition (IC50) required 0.13 µM and the “(fold-selectivity)” value is 1.4x. In series [2], the half-inhibitory concentration (IC50) amounted to 0.088 µM.
Take `CNS(=O)(=O)CCNc1cc(C2(Cc3nncn3C)CCC2)cc(N2Cc3c(cc(CNC4(C)CCC4)cc3C(F)(F)F)C2=O)n1` [Compound 312, N-methyl-2-((4-(1-((4-methyl-4H-1,2,4-triazol-3-yl)methyl)cyclobutyl)-6-(6-(((1-methylcyclobutyl)amino)methyl)-1-oxo-4-(trifluoromethyl)isoindolin-2-yl)pyridin-2-yl)amino)ethanesulfonamide]: in series [1], the IC50 came out at 0.11 µM and the “(fold-selectivity)” value is given as “(1.5x)”. In series [2], this compound yielded a half-inhibitory concentration (IC50) of 0.07 µM.
Taken in the same sequence, the figures for `Cn1cnnc1[C@@H](F)C1(c2cccc(N3Cc4c(cc(Oc5cn[nH]c5)cc4C(F)(F)F)C3=O)c2)COC1` [Compound 117, (S)-6-((1H-pyrazol-4-yl)oxy)-2-(3-(3-(fluoro(4-methyl-4H-1,2,4-triazol-3-yl)methyl)oxetan-3-yl)phenyl)-4-(trifluoromethyl)isoindolin-1-one] were 0.75 µM, 1.4x and 0.54 µM.
Consider `CC(C)NCc1cc2c(c(C(F)(F)F)c1)CN(c1cccc(C3([C@H](F)c4nncn4C)CC(F)(F)C3)c1)C2=O` [Compound 418, (S)-2-(3-(3,3-difluoro-1-(fluoro(4-methyl-4H-1,2,4-triazol-3-yl)methyl)cyclobutyl)phenyl)-6-((isopropylamino)methyl)-4-(trifluoromethyl)isoindolin-1-one], for which, in series [1], half-maximal inhibition (IC50) required 0.037 µM and the “(fold-selectivity)” value is “(1.2x)”. This compound also displayed a half-maximal inhibitory concentration (IC50) in series [2] of 0.032 µM.
Regarding `Cn1cnnc1[C@H](F)C1(c2cccc(N3Cc4c(cc([C@H](N)C5CC5)cc4C(F)(F)F)C3=O)c2)COC1` [Compound 54, 6-((R)-amino(cyclopropyl)methyl)-2-(3-(3-((R)-fluoro(4-methyl-4H-1,2,4-triazol-3-yl)methyl)oxetan-3-yl)phenyl)-4-(trifluoromethyl)isoindolin-1-one], in series [1], the IC50 stood at 0.046 µM and the “(fold-selectivity)” value came out at 1.6x. In series [2], this compound had an IC50 of 0.029 µM.
`CC(C)[C@H]1CN(C)CCN1Cc1cc2c(c(C(F)(F)F)c1)CN(c1cccc(C3([C@@H](F)c4nncn4C4CC4)COC3)c1)C2=O` [Compound 486, 2-(3-(3-((R)-(4-cyclopropyl-4H-1,2,4-triazol-3-yl)fluoromethyl)oxetan-3-yl)phenyl)-6-(((S)-2-isopropyl-4-methylpiperazin-1-yl)methyl)-4-(trifluoromethyl)isoindolin-1-one]: in series [1], the IC50 worked out at 0.093 µM and the “(fold-selectivity)” value is recorded as “(1.2x)”. The compound also displayed an IC50 in series [2] of 0.077 µM.
Taken in the same sequence, the figures for `Cn1cnnc1CC1(c2cccc(N3Cc4c(cc(C5CCNC5)cc4C(F)(F)F)C3=O)c2)COC1.O=CO` (racemic) [Compound 50, (±)-2-(3-(3-((4-methyl-4H-1,2,4-triazol-3-yl)methyl)oxetan-3-yl)phenyl)-6-(pyrrolidin-3-yl)-4-(trifluoromethyl)isoindolin-1-one formate] were 0.09 µM, 1.7x and 0.054 µM.
Regarding `Cc1cnn(CC2(c3cccc(N4Cc5c(cc(CN6CCN(C)C[C@@H]6C(C)C)cc5C(F)(F)F)C4=O)c3)COC2)n1` [Compound 256, (S)-6-((2-isopropyl-4-methylpiperazin-1-yl)methyl)-2-(3-(3-((4-methyl-2H-1,2,3-triazol-2-yl)methyl)oxetan-3-yl)phenyl)-4-(trifluoromethyl)isoindolin-1-one], the IC50 in series [1] is 0.013 µM; in series [2] it was 0.015 µM. In addition, in series [1], the “(fold-selectivity)” value was “(0.83x)”.
Turning to `Cn1cnnc1CC1(c2cc(C3CC3)cc(N3Cc4c(cc(CNC5(C)CCC5)cc4C(F)(F)F)C3=O)c2)COC1` [Compound 472, 2-(3-cyclopropyl-5-(3-((4-methyl-4H-1,2,4-triazol-3-yl)methyl)oxetan-3-yl)phenyl)-6-(((1-methylcyclobutyl)amino)methyl)-4-(trifluoromethyl)isoindolin-1-one], in series [1], inhibition was half-maximal at 0.013 µM (IC50) and the “(fold-selectivity)” value was “(0.83x)”. Also, half-maximal inhibition in series [2] (IC50) required 0.015 µM.
Taken in the same sequence, the figures for `CCNc1cc(N2Cc3c(cc(CNCC4CC4)cc3C(F)(F)F)C2=O)cc(C2(Cc3nncn3C)CCC2)c1` [Compound 457, 6-(((cyclopropylmethyl)amino)methyl)-2-(3-(ethylamino)-5-(1-((4-methyl-4H-1,2,4-triazol-3-yl)methyl)cyclobutyl)phenyl)-4-(trifluoromethyl)isoindolin-1-one] were 0.012 µM, “(0.71x)” and 0.017 µM.
Taken in the same sequence, the figures for `CC(=O)N1CCC(CNc2cc(C3(Cc4nncn4C)CCC3)cc(N3Cc4c(cc(CNC5(C)CCC5)cc4C(F)(F)F)C3=O)n2)CC1.Cl` [Compound 329, 2-(6-(((1-acetylpiperidin-4-yl)methyl)amino)-4-(1-((4-methyl-4H-1,2,4-triazol-3-yl)methyl)cyclobutyl)pyridin-2-yl)-6-(((1-methylcyclobutyl)amino)methyl)-4-(trifluoromethyl)isoindolin-1-one hydrochloride] were 0.065 µM, “(0.66x)” and 0.098 µM.
In the case of `Cn1cnnc1CC1(c2cccc(N3Cc4c(cc(CNCC5CCOC5)cc4C(F)(F)F)C3=O)c2)CC(F)(F)C1` (stereo not shown) [Compound 358, 2-(3-(3,3-difluoro-1-((4-methyl-4H-1,2,4-triazol-3-yl)methyl)cyclobutyl)phenyl)-6-((((tetrahydrofuran-3-yl)methyl)amino)methyl)-4-(trifluoromethyl)isoindolin-1-one formate], the IC50 in series [1] was found to be 0.015 µM; in series [2] it was 0.016 µM.
Turning to `C[C@@H](NC1(C)CCC1)c1cc2c(c(C(F)(F)F)c1)CN(c1cccc(C3([C@@H](F)c4nncn4C)COC3)c1)C2=O` [Compound 247, 2-(3-(3-((R)-fluoro(4-methyl-4H-1,2,4-triazol-3-yl)methyl)oxetan-3-yl)phenyl)-6-((R)-1-((1-methylcyclobutyl)amino)ethyl)-4-(trifluoromethyl)isoindolin-1-one], in series [1], half-maximal inhibition (IC50) required 0.011 µM and the “(fold-selectivity)” value is on record as “(1.4x)”. The concentration for half-maximal inhibition (IC50) in series [2] is 0.0076 µM.
Taken in the same sequence, the figures for `CC(C)[C@H]1CN(C)CCN1Cc1cc2c(c(C(F)(F)F)c1)CN(c1cccc(C3(C(F)(F)c4nncn4C)CC3)c1)C2=O` [Compound 221, (S)-2-(3-(1-(Difluoro(4-methyl-4H-1,2,4-triazol-3-yl)methyl)cyclopropyl)phenyl)-6-((2-isopropyl-4-methylpiperazin-1-yl)methyl)-4-(trifluoromethyl)isoindolin-1-one] were 0.015 µM, 1.0x and 0.015 µM.
For `C[C@@H]1CN(Cc2cc3c(c(C(F)(F)F)c2)CN(c2cccc(C4(Cc5nncn5C)CC(F)(F)C4)c2)C3=O)CCN1` [Compound 424, (R)-2-(3-(3,3-difluoro-1-((4-methyl-4H-1,2,4-triazol-3-yl)methyl)cyclobutyl)phenyl)-6-((3-methylpiperazin-1-yl)methyl)-4-(trifluoromethyl)isoindolin-1-one] the same measures were 0.031 µM, “(0.73x)” and 0.042 µM.
For the compound `CCCc1cc(C2(Cc3nncn3C)CCC2)cc(N2Cc3c(cc(CNC4(C)CCC4)cc3C(F)(F)F)C2=O)n1` [Compound 343, 2-(4-(1-((4-methyl-4H-1,2,4-triazol-3-yl)methyl)cyclobutyl)-6-propylpyridin-2-yl)-6-(((1-methylcyclobutyl)amino)methyl)-4-(trifluoromethyl)isoindolin-1-one], in series [1], half-maximal inhibition (IC50) required 0.0095 µM and the “(fold-selectivity)” value is on record as “(0.74x)”. For the same compound, the IC50 in series [2] is 0.013 µM.

The record behind these values is patent US20250230147A1, “LACTAMS AS CBL-B INHIBITORS” (Genentech, Inc., priority 2021, published 2025).
